{"source": "patent US7396655B2", "about": "“Method for enhancing activity of luciferase with fluorescence activity” (Chisso Corporation, priority 2005, dated 2008)", "key": {"BFP-aq [1]": {"target": "T1, BFP-aq (Aequorea victoria, UniProt P07164)", "assay": "biochemical", "type": "biochemical", "set-up": "The recombinant apoaequorins encoded by piP-HE is composed of 191 amino acids, whose N-terminus starts from Ala-Asn-Ser-; made in house; host or cells: E. coli strain WA802", "description": "Solutions of 50 mM Tris-HCl (pH 8.0), each containing various commercial organic compounds shown in Table 3, were prepared and pre-warmed at 25° C. The substrate coelenterazine (1 μg) was added to the solutions (200 μl) containing each of these compounds."}, "[2]": {"target": "T2, BFP-aq, luciferase with fluorescence activity derived from aequorin (recombinant apoaequorin, SEQ ID NO: 1 with N-terminal Val replaced by Ala-Asn-Ser); complex (Aequorea victoria, UniProt P02592)", "T2 construct": "The recombinant apoaequorins encoded by piP-HE is composed of 191 amino acids, whose N-terminus starts from Ala-Asn-Ser-; made in house; host or cells: E. coli strain WA802 (expression vector piP-HE)", "T2 sequence (P02592 with tags, fused parts or gaps)": "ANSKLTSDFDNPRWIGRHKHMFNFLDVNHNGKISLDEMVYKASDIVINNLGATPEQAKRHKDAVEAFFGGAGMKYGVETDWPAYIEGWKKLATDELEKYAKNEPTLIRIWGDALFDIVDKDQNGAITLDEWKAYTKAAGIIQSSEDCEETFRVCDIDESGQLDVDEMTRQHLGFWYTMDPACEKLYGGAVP", "assay": "Optimal imidazole concentration for enhancing BFP-aq luminescence (FIG. 5)", "type": "biochemical", "conditions": "pH 8.0, 25° C., coelenterazine substrate; compared with no imidazole", "description": "50 mM Tris-HCl (pH 8.0) containing imidazole at various concentrations (0. 1, 0.3, 1, 3, 10, 30, 60, 100, 150, 200, 250, 300, 400, 500, 600, 700, 800, 900, and 1000 mM) was prepared and pre-warmed at 25° C. The substrate coelenterazine (1 μg) was added to each imidazole-containing solution (200 μl). […] Assuming that the maximum intensity activity (Imax) of BFP-aq luminescence activity in 50 mM Tris-HCl (pH 8.0) is 100%, the relative luminescence activity values are shown in FIG. 5."}, "[3]": {"target": "T2, BFP-aq, luciferase with fluorescence activity derived from aequorin (recombinant apoaequorin, SEQ ID NO: 1 with N-terminal Val replaced by Ala-Asn-Ser); complex", "assay": "Light-emitting reaction rate of BFP-aq, Lineweaver-Burk plot (Table 6)", "type": "biochemical", "conditions": "with or without 150 mM imidazole"}, "BFP-aq [4]": {"target": "T1, BFP-aq", "type": "biochemical", "set-up": "The recombinant apoaequorins encoded by piP-HE is composed of 191 amino acids, whose N-terminus starts from Ala-Asn-Ser-; made in house; host or cells: E. coli strain WA802", "conditions": "pH 8.0", "description": "(§1) 50 mM Tris-HCl (pH 8.0) containing imidazole at various concentrations (0. 1, 0.3, 1, 3, 10, 30, 60, 100, 150, 200, 250, 300, 400, 500, 600, 700, 800, 900, and 1000 mM) was prepared and pre-warmed at 25° C. The substrate coelenterazine (1 μg) was added to each imidazole-containing solution (200 μl).\n(§2) As a control experiment, the same experiment was conducted using Renilla reniformis luciferase, which contains coelenterazine as luminescent substrate."}, "[5]": {"target": "T3, Renilla reniformis luciferase (recombinant, N-terminal histidine tag) (Renilla reniformis, UniProt P27652)", "T3 sequence (P27652 1-311)": "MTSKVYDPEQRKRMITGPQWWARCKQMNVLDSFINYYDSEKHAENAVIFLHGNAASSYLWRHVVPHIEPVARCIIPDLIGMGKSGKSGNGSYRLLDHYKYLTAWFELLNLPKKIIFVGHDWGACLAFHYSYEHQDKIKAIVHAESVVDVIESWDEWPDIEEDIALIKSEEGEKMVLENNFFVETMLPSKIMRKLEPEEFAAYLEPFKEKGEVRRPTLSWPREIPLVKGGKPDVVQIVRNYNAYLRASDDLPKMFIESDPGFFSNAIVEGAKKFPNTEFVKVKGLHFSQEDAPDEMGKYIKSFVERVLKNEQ", "assay": "Effect of imidazole on Renilla reniformis luciferase luminescence (control, FIG. 5)", "type": "biochemical", "conditions": "increasing concentrations of imidazole (0.1 to 1000 mM), pH 8.0, coelenterazine substrate", "description": "as §1, §2"}, "[6]": {"target": "T4, Renilla reniformis luciferase (Renilla reniformis, UniProt P27652)", "T4 construct": "histidine tag (N); made in house; host or cells: E. coli Top10", "T4 sequence (P27652 1-311)": "T3 sequence (P27652 1-311)", "assay": "Control experiment: Renilla reniformis luciferase luminescence with imidazole", "type": "biochemical", "conditions": "increasing concentrations of imidazole", "description": "Renilla reniformis luciferase, a monomeric luciferase (36 kDa) derived from Renilla reniformis, catalyzes oxidation of the substrate coelenterazine to trigger light emission.\n50 mM Tris-HCl buffer (200 μl), pH 7.6, was pre-warmed at 25° C., to which the substrate coelenterazine (1 μg/μl) dissolved in ethanol was added. A light-emitting reaction was triggered by adding Renilla reniformis luciferase (1.2 μg). […] The measured values were represented as the maximum intensity (Imax) of luminescence activity.\nAs a control experiment, the same experiment was conducted using Renilla reniformis luciferase, which contains coelenterazine as luminescent substrate. […] That is, it was shown that the enhancing effect on luminescence activity by the addition of imidazole is specific for BFP-aq."}, "BFP-aq [7]": {"target": "T1, BFP-aq", "conditions": "with vs without 150 mM imidazole", "procedure": "Then, luminescence activity was measured with the luminometer Luminescencer-PSN AB2200 (manufactured by Atto Co., Ltd.) for 60 seconds. Using the luminescence activity for the first 3 sec of the light-emitting reaction as the initial reaction rate, Km values were determined by the Lineweaver-Burk plot method."}, "[8]": {"target": "T2, BFP-aq, luciferase with fluorescence activity derived from aequorin (recombinant apoaequorin, SEQ ID NO: 1 with N-terminal Val replaced by Ala-Asn-Ser); complex", "assay": "Luminescence of BFP-aq with coelenterazine and analogs, with/without imidazole (Table 5)", "type": "biochemical", "conditions": "without imidazole; pH 8.0; coelenterazine without imidazole = 100%", "description": "200 μl of this solution was placed in five vessels, to each of which 1 μg of the substrate coelenterazine (CTZ) and its four analogs: h-CTZ, cp-CTZ, hcp-CTZ, f-CTZ were added. […] Assuming that the maximum intensity activity (Imax) and initial velocity of BFP-aq luminescence activity in 50 mM Tris-HCl (pH 8.0) was 100%, the effect of the addition of imidazole on luminescence activity was examined."}, "[9]": {"conditions": "pH 8, read-out: Luminescence activity (%) Imax"}, "[10]": {"conditions": "pH 8, read-out: Luminescence activity (%) Initial velocity"}}, "note": "“Also recorded” adds a separate entry of the source. Where two headings read alike, the source gives them in different places.", "data": [{"smiles": "c1c[nH]cn1", "note": "[Imidazole]", "values": [{"measurement": "activity at 30000 µM", "setting": "BFP-aq [1]; [9]", "result": 148, "unit": "%"}, {"measurement": "activity at 150000 µM", "setting": "BFP-aq [1]; [9]", "result": 199, "unit": "%"}, {"measurement": "activity at 30000 µM", "setting": "BFP-aq [1]; [10]", "result": 153, "unit": "%"}, {"measurement": "activity at 150000 µM", "setting": "BFP-aq [1]; [10]", "result": 205, "unit": "%"}, {"measurement": "Enhancement of BFP-aq luminescence activity (Imax), in words", "setting": "BFP-aq [1]; pH 8.0, Table 4 comparison", "result": "marked luminescence activity (Imax) occurs only when 150 mM imidazole was added"}, {"measurement": "Luminescence activity of BFP-aq with imidazole, in words", "setting": "[2]", "result": "enhanced at 30 to 250 mM imidazole; also recorded: more than two-fold of the luminescence activity"}, {"measurement": "Km change with imidazole, in words", "setting": "[3]", "result": "no marked changes were found in the Km values"}, {"measurement": "Vmax change with imidazole, in words", "setting": "[3]", "result": "only Vmax was doubled in the system with imidazole"}, {"measurement": "Luminescence activity compared with the system without imidazole", "setting": "BFP-aq [4]; 150 mM imidazole", "result": "more than two-fold"}, {"measurement": "Effect on luminescence activity of BFP-aq", "setting": "BFP-aq [4]; 30 to 250 mM imidazole", "result": "enhanced"}, {"measurement": "Luminescence activity of Renilla reniformis luciferase with imidazole, in words", "setting": "[5]", "result": "remarkably inhibited with increasing concentrations of imidazole"}, {"measurement": "Effect on luminescence activity of Renilla reniformis luciferase", "setting": "[6]", "result": "remarkably inhibited"}, {"measurement": "Change of Km values", "setting": "BFP-aq [7]", "result": "no marked changes"}, {"measurement": "Change of Vmax", "setting": "BFP-aq [7]", "result": "doubled"}]}, {"smiles": "O=c1c(Cc2ccc(O)cc2)nc2c(CC3CCCC3)[nH]c(-c3ccc(O)cc3)cn1-2", "note": "[cp-Coelenterazine, cp-coelenterazine]", "values": [{"measurement": "Relative luminescence activity, Imax", "setting": "[8]", "result": 54, "unit": "%"}]}]}
